This is an account of results in patent EP1267826B1, “PHARMACEUTICAL COMPOSITION FOR TREATMENT OF MUCOSAL EPITHELIAL ULCERATION AND/OR EROSION” (LIF-HLAUP EHF. BIO-GELS PHARMACEUTICALS INC., priority 1999, dated 2001).

The test system of one experiment is MMP's. To be noted: literature (Burns et al. 1989; Gabler et al. 1991); cited from earlier work.
Another experiment has as its target T1, MMP-2 (Homo sapiens, UniProt P08253).
T1 construct: known to secrete a large amount of several matrix-degrading enzymes, among which are MMP-2 and MMP-9; endogenous in cells; host or cells: HT-1080 human fibrosarcoma cells (secreted enzyme)
T1 sequence (P08253 110-660): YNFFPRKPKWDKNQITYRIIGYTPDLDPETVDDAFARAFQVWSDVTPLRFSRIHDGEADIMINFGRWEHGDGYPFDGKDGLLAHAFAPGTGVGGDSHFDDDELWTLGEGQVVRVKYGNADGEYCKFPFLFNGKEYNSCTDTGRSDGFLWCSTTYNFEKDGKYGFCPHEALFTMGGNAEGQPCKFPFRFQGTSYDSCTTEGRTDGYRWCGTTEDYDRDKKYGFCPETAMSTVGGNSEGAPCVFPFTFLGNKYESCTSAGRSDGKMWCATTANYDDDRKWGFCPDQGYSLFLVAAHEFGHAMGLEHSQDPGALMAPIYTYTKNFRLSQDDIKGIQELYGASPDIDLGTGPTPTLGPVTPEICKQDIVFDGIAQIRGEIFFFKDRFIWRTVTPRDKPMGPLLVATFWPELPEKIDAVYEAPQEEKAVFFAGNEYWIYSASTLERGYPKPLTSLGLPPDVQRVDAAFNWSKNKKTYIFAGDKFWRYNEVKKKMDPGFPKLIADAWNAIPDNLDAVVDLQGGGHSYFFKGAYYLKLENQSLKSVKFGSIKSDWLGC
Description: Zymography, inhibition of gelatinolytic activity. Type of experiment: biochemical. To be noted: MMP-2 acquired from HT-1080; result determined visually; read-out: concentration at which complete inhibition was achieved. The source says:
(§1) In checking the inhibition of the doxycycline on MMP's a Zymography method was used (Mackay et al., Cancer Res., 50(18), 5997-6001, 1990).
(§2) Cell culture: HT-1080 is human fibrosarcoma cell line which is known to secrete a large amount of several matrix-degrading enzymes, among which are MMP-2 and MMP-9 (Kawamata et al., International Journal of Oncology, 13, 699-704, 1998).

The next experiment deals with T2, MMP-9 (Homo sapiens, UniProt P14780).
T2 construct: known to secrete a large amount of several matrix-degrading enzymes, among which are MMP-2 and MMP-9; endogenous in cells; host or cells: HT-1080 human fibrosarcoma cells (secreted enzyme)
Kind of experiment: Zymography, inhibition of gelatinolytic activity. To be noted: MMP-9 acquired from HT-1080; result determined visually; read-out: concentration at which complete inhibition was achieved. Type of experiment: biochemical.
Source text: as §1, §2

Where “and” joins values, the source holds several entries; their conditions need not be identical. Equal values may be shown once.

T2 sequence (P14780 94-707): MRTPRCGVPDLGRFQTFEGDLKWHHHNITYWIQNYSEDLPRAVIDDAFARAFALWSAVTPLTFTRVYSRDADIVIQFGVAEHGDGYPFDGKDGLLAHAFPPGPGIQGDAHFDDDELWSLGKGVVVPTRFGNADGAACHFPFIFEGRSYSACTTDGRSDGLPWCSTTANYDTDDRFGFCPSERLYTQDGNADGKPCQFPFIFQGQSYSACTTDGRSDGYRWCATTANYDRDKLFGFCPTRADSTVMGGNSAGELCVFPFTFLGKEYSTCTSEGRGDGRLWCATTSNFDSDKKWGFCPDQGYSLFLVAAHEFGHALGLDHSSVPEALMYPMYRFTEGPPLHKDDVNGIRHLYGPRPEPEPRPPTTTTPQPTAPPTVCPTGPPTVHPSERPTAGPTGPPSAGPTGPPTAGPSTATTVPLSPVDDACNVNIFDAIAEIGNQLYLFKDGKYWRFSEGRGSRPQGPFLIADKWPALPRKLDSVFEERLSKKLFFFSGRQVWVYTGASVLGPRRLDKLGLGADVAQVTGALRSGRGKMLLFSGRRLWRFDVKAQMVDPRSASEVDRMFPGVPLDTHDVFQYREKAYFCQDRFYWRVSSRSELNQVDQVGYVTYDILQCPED

`CCN(CC)CCCCCCCCOC(=O)c1cc(OC)c(OC)c(OC)c1` [TMB-8]: in the experiment on MMP's, the “inhibition of the MMP's (in words)” value was “have shown inhibition of MMP's”. As to `C[C@H]1c2cccc(O)c2C(=O)C2=C(O)[C@]3(O)C(=O)C(C(N)=O)=C(O)[C@@H](N(C)C)[C@@H]3[C@@H](O)[C@@H]21` [doxycycline], the IC100 was 100 µM and 48 µg/mL at MMP-2; 50 µM and 24 µg/mL on MMP-9.

Regarding `O=C(O)CN(CCN(CC(=O)O)CC(=O)O)CC(=O)O` [EDTA], in the experiment on MMP's, the “inhibition of the MMP's (in words)” value is given as “have shown inhibition of MMP's”.
